Test results from patent publication US7820623B2 (priority 2006, dated 2010).
Bridge positions count the residues as written; N and C are the ends. Square brackets hold non-standard residues; d marks the D form. Peptide text beside a SMILES is read from it. 1Nal = N[C@@H](Cc1cccc2ccccc12)C(=O)O

Key:
[1] = test system: thapsigargin-induced IFN-g production in human whole blood; assay type: cell-based; settings: read-out: Analogue Activity (IC50) WB/IFNg
[2] = test system: thapsigargin-induced IL-2 production in human whole blood; settings: read-out: Analogue Activity (IC50) WB/IL-2

## CC[C@H](C)[C@@H]1NC(=O)[C@H](CCCCN)NC(=O)[C@@H](NC(=O)[C@H](CCCCN)NC(=O)[C@@H](NC(=O)[C@H](CC(N)=O)NC(=O)[C@@H](NC(=O)[C@@H](NC(=O)[C@@H](NC(=O)CN)C(C)C)[C@@H](C)CC)[C@@H](C)CC)C(C)C)CSSC[C@@H]2NC(=O)[C@H](CCCCN)NC(=O)CNC(=O)[C@H](Cc3ccccc3)NC(=O)[C@H](CCCNC(=N)N)NC(=O)[C@H](CCSC)NC(=O)CNC(=O)[C@H](C)NC(=O)[C@H](CCCCN)NC(=O)[C@H](CCCCN)NC(=O)[C@@H]3CSSC[C@@H](C(=O)N[C@H](C(=O)N4CCC[C@H]4C(=O)N[C@@H](CCCNC(=N)N)C(=O)O)[C@@H](C)O)NC(=O)[C@H](Cc4c[nH]cn4)NC(=O)[C@H](CSSC[C@H](NC(=O)[C@H](CCC(N)=O)NC(=O)[C@H](CCCNC(=N)N)NC(=O)[C@H](CO)NC1=O)C(=O)N[C@@H](CC(C)C)C(=O)N[C@@H](CCC(=O)O)C(=O)N1CCC[C@H]1C(=O)N3)NC(=O)[C@H](CCCCN)NC(=O)CNC(=O)[C@H](CC(N)=O)NC(=O)[C@H](CCSC)NC2=O [K38R] (H-GVIINVKCKISRQCLEPCKKAGMRFGKCMNGKCHCTPR-OH; disulfide 8-28, 14-33, 18-35)
[1]
  IC50: 0.04 nM
[2]
  IC50: 0.039 nM

## CC[C@H](C)[C@@H]1NC(=O)[C@H](CCCCN)NC(=O)[C@@H](NC(=O)[C@H](CCCCN)NC(=O)[C@@H](NC(=O)[C@H](CC(N)=O)NC(=O)[C@@H](NC(=O)[C@@H](NC(=O)[C@@H](NC(=O)CN)C(C)C)[C@@H](C)CC)[C@@H](C)CC)C(C)C)CSSC[C@@H]2NC(=O)[C@H](CCCCN)NC(=O)CNC(=O)[C@H](Cc3ccccc3)NC(=O)[C@H](CCCNC(=N)N)NC(=O)[C@H](CCSC)NC(=O)CNC(=O)[C@H](C)NC(=O)[C@H](CCCCN)NC(=O)[C@H](CCCCN)NC(=O)[C@@H]3CSSC[C@@H](C(=O)N[C@H](C(=O)N4CCC[C@H]4C(=O)N[C@@H](CCCCN)C(=O)O)[C@@H](C)O)NC(=O)[C@H](Cc4c[nH]cn4)NC(=O)[C@H](CSSC[C@H](NC(=O)[C@H](CCC(N)=O)NC(=O)[C@H](CCCNC(=N)N)NC(=O)[C@H](CO)NC1=O)C(=O)N[C@@H](C)C(=O)N[C@@H](CCC(=O)O)C(=O)N1CCC[C@H]1C(=O)N3)NC(=O)[C@H](CCCCN)NC(=O)CNC(=O)[C@H](CC(N)=O)NC(=O)[C@H](CCSC)NC2=O [L15A] (H-GVIINVKCKISRQCAEPCKKAGMRFGKCMNGKCHCTPK-OH; disulfide 8-28, 14-33, 18-35)
[1]
  IC50: 0.107 nM
[2]
  IC50: 0.107 nM

## CC[C@H](C)[C@@H]1NC(=O)[C@H](CCCCN)NC(=O)[C@@H](NC(=O)[C@H](CCCCN)NC(=O)[C@@H](NC(=O)[C@H](CC(N)=O)NC(=O)[C@@H](NC(=O)[C@@H](NC(=O)[C@@H](NC(=O)CN)C(C)C)[C@@H](C)CC)[C@@H](C)CC)C(C)C)CSSC[C@@H]2NC(=O)[C@H](CCCCN)NC(=O)CNC(=O)[C@H](Cc3ccccc3)NC(=O)[C@H](CCCNC(=N)N)NC(=O)[C@H](CCSC)NC(=O)CNC(=O)[C@H](C)NC(=O)[C@H](CCCCN)NC(=O)[C@H](CCCCN)NC(=O)[C@@H]3CSSC[C@@H](C(=O)N[C@H](C(=O)N4CCC[C@H]4C(=O)N[C@@H](CCCCN)C(=O)O)[C@@H](C)O)NC(=O)[C@H](Cc4c[nH]cn4)NC(=O)[C@H](CSSC[C@H](NC(=O)[C@H](CCC(N)=O)NC(=O)[C@H](CCCNC(=N)N)NC(=O)[C@H](CO)NC1=O)C(=O)N[C@@H](Cc1cccc4ccccc14)C(=O)N[C@@H](CCC(=O)O)C(=O)N1CCC[C@H]1C(=O)N3)NC(=O)[C@H](CCCCN)NC(=O)CNC(=O)[C@H](CC(N)=O)NC(=O)[C@H](CCSC)NC2=O [L15Nal] (H-GVIINVKCKISRQC[1Nal]EPCKKAGMRFGKCMNGKCHCTPK-OH; disulfide 8-28, 14-33, 18-35)
[1]
  IC50: 0.37 nM
[2]
  IC50: 0.358 nM

## CC[C@H](C)[C@@H]1NC(=O)[C@H](CCCCN)NC(=O)[C@@H](NC(=O)[C@H](CCCCN)NC(=O)[C@@H](NC(=O)[C@H](CC(N)=O)NC(=O)[C@@H](NC(=O)[C@@H](NC(=O)[C@@H](NC(=O)CN)C(C)C)[C@@H](C)CC)[C@@H](C)CC)C(C)C)CSSC[C@@H]2NC(=O)[C@H](CCCCN)NC(=O)CNC(=O)[C@H](Cc3ccccc3)NC(=O)[C@H](CCCNC(=N)N)NC(=O)[C@H](CCSC)NC(=O)CNC(=O)[C@H](C)NC(=O)[C@H](CCCCN)NC(=O)[C@H](CCCCN)NC(=O)[C@@H]3CSSC[C@@H](C(=O)N[C@H](C(=O)N4CCC[C@H]4C(=O)N[C@@H](CCCCN)C(=O)O)[C@@H](C)O)NC(=O)[C@H](Cc4c[nH]cn4)NC(=O)[C@H](CSSC[C@H](NC(=O)[C@H](CCC(N)=O)NC(=O)[C@H](CCCNC(=N)N)NC(=O)[C@H](CO)NC1=O)C(=O)N[C@@H](CCCNC(=N)N)C(=O)N[C@@H](CCC(=O)O)C(=O)N1CCC[C@H]1C(=O)N3)NC(=O)[C@H](CCCCN)NC(=O)CNC(=O)[C@H](CC(N)=O)NC(=O)[C@H](CCSC)NC2=O [L15R] (H-GVIINVKCKISRQCREPCKKAGMRFGKCMNGKCHCTPK-OH; disulfide 8-28, 14-33, 18-35)
[1]
  IC50: 0.116 nM
[2]
  IC50: 0.093 nM

## CC[C@H](C)[C@@H]1NC(=O)[C@H](CCCCN)NC(=O)[C@@H](NC(=O)[C@H](CCCCN)NC(=O)[C@@H](NC(=O)[C@H](CC(N)=O)NC(=O)[C@@H](NC(=O)[C@@H](NC(=O)[C@@H](NC(=O)CN)C(C)C)[C@@H](C)CC)[C@@H](C)CC)C(C)C)CSSC[C@@H]2NC(=O)[C@H](CCCCN)NC(=O)CNC(=O)[C@H](Cc3ccccc3)NC(=O)[C@H](CCCNC(=N)N)NC(=O)[C@H](C)NC(=O)CNC(=O)[C@H](C)NC(=O)[C@H](CCCCN)NC(=O)[C@H](CCCCN)NC(=O)[C@@H]3CSSC[C@@H](C(=O)N[C@H](C(=O)N4CCC[C@H]4C(=O)N[C@@H](CCCCN)C(=O)O)[C@@H](C)O)NC(=O)[C@H](Cc4c[nH]cn4)NC(=O)[C@H](CSSC[C@H](NC(=O)[C@H](CCC(N)=O)NC(=O)[C@H](CCCNC(=N)N)NC(=O)[C@H](CO)NC1=O)C(=O)N[C@@H](CC(C)C)C(=O)N[C@@H](CCC(=O)O)C(=O)N1CCC[C@H]1C(=O)N3)NC(=O)[C@H](CCCCN)NC(=O)CNC(=O)[C@H](CC(N)=O)NC(=O)[C@H](CCSC)NC2=O [M23A] (H-GVIINVKCKISRQCLEPCKKAGARFGKCMNGKCHCTPK-OH; disulfide 8-28, 14-33, 18-35)
[1]
  IC50: 0.275 nM
[2]
  IC50: 0.275 nM

## CC[C@H](C)[C@@H]1NC(=O)[C@H](CCCCN)NC(=O)[C@@H](NC(=O)[C@H](CCCCN)NC(=O)[C@@H](NC(=O)[C@H](CC(N)=O)NC(=O)[C@@H](NC(=O)[C@@H](NC(=O)[C@@H](NC(=O)CN)C(C)C)[C@@H](C)CC)[C@@H](C)CC)C(C)C)CSSC[C@@H]2NC(=O)[C@H](CCCCN)NC(=O)CNC(=O)[C@H](Cc3ccccc3)NC(=O)[C@H](CCCNC(=N)N)NC(=O)[C@H](CCC(=O)O)NC(=O)CNC(=O)[C@H](C)NC(=O)[C@H](CCCCN)NC(=O)[C@H](CCCCN)NC(=O)[C@@H]3CSSC[C@@H](C(=O)N[C@H](C(=O)N4CCC[C@H]4C(=O)N[C@@H](CCCCN)C(=O)O)[C@@H](C)O)NC(=O)[C@H](Cc4c[nH]cn4)NC(=O)[C@H](CSSC[C@H](NC(=O)[C@H](CCC(N)=O)NC(=O)[C@H](CCCNC(=N)N)NC(=O)[C@H](CO)NC1=O)C(=O)N[C@@H](CC(C)C)C(=O)N[C@@H](CCC(=O)O)C(=O)N1CCC[C@H]1C(=O)N3)NC(=O)[C@H](CCCCN)NC(=O)CNC(=O)[C@H](CC(N)=O)NC(=O)[C@H](CCSC)NC2=O [M23E] (H-GVIINVKCKISRQCLEPCKKAGERFGKCMNGKCHCTPK-OH; disulfide 8-28, 14-33, 18-35)
[1]
  IC50: 0.666 nM
[2]
  IC50: 0.606 nM
